Data as given in US20150031668A1, “CHROMAN DERIVATIVES AS TRPM8 INHIBITORS” (AMGEN INC., priority 2013, published 2015).

Assays:
[1] = tested on: icilin induced wet-dog shakes; experiment: Inhibition of icilin induced shaking (wet-dog shakes) in rats; assay type: in vivo, male Sprague Dawley rats; settings: po, rat
Protocol: Inhibition of Icilin Induced Shaking in Rats
Example compounds at doses ranging from 0.01 to 3 mg/kg (p.o, suspended in 5% Tween80/Oralplus or suspended in 2% HPMC-1% Tween-80 pH2.2 with MSA, 5 mL/kg) can be administered to male Sprague Dawley rats (200-300 g, Harlan, n=6-8/treatment) 2 h before icilin to assess the ability to block the spontaneous wet-dog shake phenomena induced by icilin (i.p., suspended in 100% PEG400 at 0.5 mg/kg, 1 mL/kg or p.o., suspended in 2% HPMC-1% Tween-80 at 3 mg/kg, 2.5 mL/kg). Spontaneous wet-dog shakes may be counted manually by two blinded observers or using LABORAS automation (Metris) for 30 min post-icilin. The synthesized and prophetic example compounds may be measured using these procedures and will be found to reduce the spontaneous wet dog shake phenomena induced by icilin.

[2] = target: T1, human TRPM8 (Homo sapiens, UniProt Q7Z2W7); experiment: Luminescence readout assay for measuring intracellular calcium (aequorin, CHO cells expressing human TRPM8; icilin, L-menthol or cold activation); assay type: cell-based; settings: CHO cells expressing human TRPM8, icilin activation (1 μM), aequorin luminescence; read-out: hTRPM8 IC50
T1 construct: expressed in transfected cells; host or cells: Chinese hamster ovary (CHO) cells, T-REx tetracycline-inducible expression system (Invitrogen); co-transfected with pcDNA3.1 aequorin
How it was run: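 Activation was by 1 μM icilin, 100 μM L-menthol (test compound 2.5 min ahead) or cold buffer below 10° C (compound 1 min ahead). Calcium rise measured as aequorin luminescence in CHO cells with tetracycline-inducible human TRPM8.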

T1 sequence (Q7Z2W7 whole entry): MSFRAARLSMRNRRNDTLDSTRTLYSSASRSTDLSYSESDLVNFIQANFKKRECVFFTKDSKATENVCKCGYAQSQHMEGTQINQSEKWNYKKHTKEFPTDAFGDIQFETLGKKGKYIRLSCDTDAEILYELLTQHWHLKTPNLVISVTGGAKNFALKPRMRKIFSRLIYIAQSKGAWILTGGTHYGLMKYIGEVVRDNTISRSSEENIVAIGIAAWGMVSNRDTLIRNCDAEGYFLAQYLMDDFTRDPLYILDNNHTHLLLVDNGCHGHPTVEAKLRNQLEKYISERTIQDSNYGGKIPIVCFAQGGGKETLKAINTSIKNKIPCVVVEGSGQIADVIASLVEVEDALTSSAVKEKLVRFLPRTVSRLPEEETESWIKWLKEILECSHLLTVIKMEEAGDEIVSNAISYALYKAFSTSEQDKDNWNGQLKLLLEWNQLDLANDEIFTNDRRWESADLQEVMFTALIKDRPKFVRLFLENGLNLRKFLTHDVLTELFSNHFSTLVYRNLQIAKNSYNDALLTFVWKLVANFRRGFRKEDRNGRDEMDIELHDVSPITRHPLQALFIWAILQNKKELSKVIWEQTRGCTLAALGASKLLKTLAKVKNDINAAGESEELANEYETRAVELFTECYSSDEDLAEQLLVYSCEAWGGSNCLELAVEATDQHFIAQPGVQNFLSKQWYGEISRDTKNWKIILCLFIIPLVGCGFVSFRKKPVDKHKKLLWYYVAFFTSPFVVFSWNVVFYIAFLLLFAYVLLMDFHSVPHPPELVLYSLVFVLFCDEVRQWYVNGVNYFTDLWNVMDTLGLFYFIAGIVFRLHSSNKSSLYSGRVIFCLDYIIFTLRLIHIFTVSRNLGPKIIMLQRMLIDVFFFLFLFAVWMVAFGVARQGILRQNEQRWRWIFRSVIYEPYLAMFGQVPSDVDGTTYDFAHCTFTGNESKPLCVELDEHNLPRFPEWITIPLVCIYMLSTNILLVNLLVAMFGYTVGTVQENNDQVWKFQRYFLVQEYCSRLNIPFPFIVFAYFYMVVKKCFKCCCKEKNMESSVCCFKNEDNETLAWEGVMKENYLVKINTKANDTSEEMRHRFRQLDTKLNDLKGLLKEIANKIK

| IC50 [2] [nM] | SMILES | inhibition in vivo at 1 mg/kg [1] [%] | inhibition in vivo at 0.3 mg/kg ([1]; dose 0.3 mg/kg) [%] |
| --- | --- | --- | --- |
| 15 | CCc1cc(C(=O)N[C@]2(c3ccc(OC(F)(F)F)c(F)c3)CCOc3cccnc32)ccc1C(=O)O [Example 291, (S)-2-ethyl-4-((4-(3-fluoro-4-(trifluoromethoxy)phenyl)-3,4-dihydro-2H-pyrano[3,2-b]pyridin-4-yl)carbamoyl)benzoic acid] | 97 | – |
| 8 | Cc1nc(C(=O)N[C@]2(c3ccc(OC(F)(F)F)c(F)c3)CCOc3cccnc32)ccc1C(=O)O [Example 310, (S)-6-((4-(3-fluoro-4-(trifluoro-methoxy)phenyl)-3,4-dihydro-2H-pyrano[3,2-b]pyridin-4-yl)carbamoyl)-2-methylnicotinic acid] | 98 | – |
| 14 | O=C(O)c1ccc(C(=O)N[C@]2(c3ccc(C(F)(F)F)c(F)c3)CCOc3cccnc32)nc1 [Example 313, (S)-6-((4-(3-fluoro-4-(trifluoro-methyl)phenyl)-3,4-dihydro-2H-pyrano[3,2-b]pyridin-4-yl)carbamoyl) nicotinic acid] | 99 | – |
| 4 | COc1cc(C(=O)O)ccc1C(=O)N[C@]1(c2ccc(OC(F)(F)F)c(F)c2)CCOc2cccnc21 [Example 314, (S)-4-((4-(3-fluoro-4-(trifluoromethoxy)phenyl)-3,4-dihydro-2H-pyrano[3,2-b]pyridin-4-yl)carbamoyl)-3-methoxybenzoic acid] | 99 | – |
| 25 | O=C(O)c1ccc(C(=O)N[C@]2(c3ccc(Cl)c(Cl)c3)CCOc3cccnc32)nc1 [Example 318, (S)-6-((4-(3,4-dichloro-phenyl)-3,4-dihydro-2H-pyrano[3,2-b]pyridin-4-yl)carbamoyl) nicotinic acid] | 86 | – |
| 15 | Cc1cc(C(=O)N[C@]2(c3ccc(OC(F)(F)F)cc3)CCOc3cccnc32)ccc1C(=O)O [Example 319, (S)-2-methyl-4-((4-(4-(trifluoro-methoxy)phenyl)-3,4-dihydro-2H-pyrano[3,2-b]pyridin-4-yl)carbamoyl) benzoic acid] | – | 75 |
| 12 | Nc1cc(C(=O)N[C@]2(c3ccc(OC(F)(F)F)c(F)c3)CCOc3cccnc32)ccc1C(=O)O [Example 321, (S)-2-amino-4-((4-(3-fluoro-4-(trifluoro-methoxy)phenyl)-3,4-dihydro-2H-pyrano[3,2-b]pyridin-4-yl)carbamoyl) benzoic acid] | 95 | – |
| 33 | O=C(O)c1ccc(C(=O)N[C@]2(c3ccc(C(F)(F)F)cc3)CCOc3cccnc32)nc1 [Example 326, (S)-6-((4-(4-(trifluoro-methyl)phenyl)-3,4-dihydro-2H-pyrano[3,2-b]pyridin-4-yl)carbamoyl) nicotinic acid] | 98 | – |
| 23 | O=C(O)c1ccc(C(=O)N[C@]2(c3ccc(OC(F)(F)F)cc3)CCOc3cccnc32)nc1 [Example 327, (S)-6-((4-(4-(trifluoro-methoxy)phenyl)-3,4-dihydro-2H-pyrano[3,2-b]pyridin-4-yl)carbamoyl) nicotinic acid] | 93 | – |
| 16 | Cc1cc(C(=O)N[C@]2(c3ccc(OC(F)(F)F)c(F)c3)CCOc3cccnc32)ccc1C(=O)O [Example 332, (S)-4-((4-(3-fluoro-4-(trifluoromethoxy)phenyl)-3,4-dihydro-2H-pyrano[3,2-b]pyridin-4-yl)carbamoyl)-2-methylbenzoic acid] | 99 | – |
